Results taken from patent publication US12201649B2, “Pharmaceutical composition comprising oxidizable biphenol and manganese porphyrin, and method of using the same” (Villanova University, priority 2021, dated 2025).
Like-named read-outs stand apart in the source and are kept apart here.

Tests used:
Jurkat cells [1] = assay: apoptosis (Annexin-PE) and necrosis (RedDot 2) by flow cytometry, 4 hours; assay type: cell-based, human; conditions: for effect on Jurkat cells (alive, apoptotic, necrotic): 4 hours
Procedure: Referring to FIGS. 4, 5, 6, 8, 12 and 15, cells were treated with the indicated compounds or vehicle for 4 hours in RPMI medium with 10% fetal bovine serum (FBS). RPMI medium, also known as RPMI 1640, is a growth medium used in cell culture. In these and other figures, “vehicle” represents when a treatment compound is omitted and replaced with the vehicle that the compound is dissolved in. Thus, when a MnP is omitted, water is added in its place. When an oxidizable phenol is omitted, DMSO is added for a resulting final concentration in the cell media of 0.05% DMSO. Apoptosis was measured using Annexin-PE, and necrosis was measured with RedDot 2. Fluorescence was read on an Accuri C6 flow cytometer with excitation from a 488 nm laser, and FL2 and FL4 filters were used for Annexin-PE and RedDot2, respectively. 10,000 events were acquired. Flow cytometry data was analyzed using Flowlogic software from Inivai Technologies of Australia. […] Percentage of alive, apoptotic, or necrotic cells was determined and graphed as the average±the standard deviation.
The combination of tBHQ and MnTMPyP is toxic to Jurkat cells, a CD4+ T-cell leukemic cell line. […] Cells that were alive, apoptotic or necrotic were determined using flow cytometry. Two specimens (biological duplicates) were measured for each sample.
Cells that were alive, apoptotic or necrotic were determined using flow cytometry, with n=2 (biological duplicates).
Referring to FIG. 12, unlike tBHQ, dtBHQ has no toxicity to Jurkat cells in combination with MnTMPyP. […] Cells that were alive, apoptotic or necrotic were determined using flow cytometry, with n=2 (biological duplicates).
Referring to FIG. 15, Jurkat cell death upon exposure to MNTE-2-PyP and MnTNBuOE-2-PyP (labelled as Mn2E and Mn2BuOE, respectively, in FIG. 15) are compared with that of exposure to Mn4M. […] Cells that were alive, apoptotic or necrotic were determined using flow cytometry, with n=2 (technical duplicates).
Jurkat cells were treated with 5 mM ascorbic acid or 5 μM tBHQ with or without 12 μM MnTMPyP for 4 h. Apoptosis was measured using Annexin-PE, necrosis with RedDot 2. […]

NALM6 cells = assay: as above; assay type: cell-based; conditions: tBHQ or 12 μM MnTMPyP alone
[2] = tested on: MDA-MB-231 breast cancer cells; conditions: 24 hours; for efficacy at killing breast cancer cells compared with MnTM4PyP: when combined with tBHQ
Jurkat cells [3] = assay: cells; conditions: Homo sapiens, 24 h
Procedure: Referring to FIG. 16, Jurkat cells were treated with the indicated compounds for 24 hours in RPMI with 2% FBS. Live cells were measured using the CellTiter-Fluor dye, which enters living cells and is cleaved by intracellular proteases to release the fluorescent coumarin molecule. Fluorescence was measured on a ClarioStar Plus plate reader in a 96-well plate format with excitation at 390 nm and emission capture at 505 nm. […] Data are graphed as the average±the standard error, along with the fit.
The relative number of viable cells in a sample was determined using CellTiter-Fluor dye with relative fluorescence units (RFU). […] The LC50 value for a compound is the concentration required to kill half of the cells tested after a specified test duration such as 24 hours.

[4] = tested on: MDA-MB-231 breast cancer cells; assay: cells; conditions: Homo sapiens, MDA-MB-231, 24 h
[5] = tested on: PC3 prostate cancer cells; assay: cells; conditions: 24 h
[6] = read-out: LC50 for tBHQ in the presence of Mn2BuOE

For `C[n+]1ccc(-c2c3nc(c(-c4cc[n+](C)cc4)c4ccc([nH]4)c(-c4cc[n+](C)cc4)c4nc(c(-c5cc[n+](C)cc5)c5ccc2[nH]5)C=C4)C=C3)cc1.[Mn+3]` [MnTMPyP, Mn(III)tetrakis(1-methyl-4-pyridyl)porphyrin], the “effect on Jurkat cells (alive, apoptotic, necrotic)” value (Jurkat cells [1]; 12 μM MnTMPyP alone) was “largely unaffected” and the “toxicity to NALM6 cells, compound individually” value (NALM6 cells) was “low toxicity”.
In the case of `CC(C)(C)c1cc(O)ccc1O` [tBHQ, tert-butylhydroquinone], the “effect on Jurkat cells (alive, apoptotic, necrotic)” value (Jurkat cells [1]; 5 μM to 20 μM tBHQ alone) is reported as “largely unaffected”, the “toxicity to NALM6 cells, compound individually” value (NALM6 cells) is reported as “low toxicity” and the “toxicity of tBHQ alone” value ([2]; at 100 μM tBHQ) is reported as “no toxicity observed”. The CC50 (Jurkat cells [3]; read-out: LC50 for tBHQ alone) was 80 ± 30 µM, the CC50 (Jurkat cells [3]; [6]) was 1.29 ± 0.04 µM and the CC50 ([4]; read-out: LC50 for tBHQ alone) was greater than 100 µM. The CC50 ([4]; read-out: LC50 for tBHQ in the presence of MnTMPyP) was 20 µM, the CC50 ([5]; read-out: LC50 for tBHQ alone) was greater than 100 µM and the CC50 [5, 6] was 16 ± 7 µM.
In the case of `CCCCOCC[n+]1ccccc1-c1c2nc(c(-c3cccc[n+]3CCOCCCC)c3ccc([nH]3)c(-c3cccc[n+]3CCOCCCC)c3nc(c(-c4cccc[n+]4CCOCCCC)c4ccc1[nH]4)C=C3)C=C2.[Mn+3]` [Mn2BuOE], the “effectiveness at 1.2 μM versus 12 μM” value (Jurkat cells [1]; in combination with 5 μM tBHQ, four hours) is reported as “almost as effective at 1.2 μM as it was at 12 μM”, the “efficacy at killing breast cancer cells compared with MnTM4PyP” value [2] is reported as “higher efficacy” and the “concentration at which Mn2BuOE is active” value ([2]; with 20 μM tBHQ) is reported as “less than 1 μM”. The “toxicity of Mn2BuOE alone” value ([2]; without tBHQ, tested concentrations) was “not toxic at tested concentrations”.
`CC[n+]1ccccc1-c1c2nc(c(-c3cccc[n+]3CC)c3ccc([n-]3)c(-c3cccc[n+]3CC)c3nc(c(-c4cccc[n+]4CC)c4ccc1[n-]4)C=C3)C=C2.[Mn+3]` [Mn2TE2] was tested, and the “efficacy at killing breast cancer cells compared with MnTM4PyP” value [2] was “higher efficacy”.
